Experimental findings from patent US20220175925A1, “PHARMACEUTICAL COMPOSITION FOR PREVENTING OR TREATING TREATMENT-RESISTANT CANCER” (JIMRO CO., LTD., priority 2019, published 2022) are described below.

Molecules are shown by their SMILES.

Common to all, as to format: cell-based
Assay [1] concerns MT-1 ATL cell line. Kind of assay: PDT using 5-ALA, cell survival rate by Cell Counting Kit-8, MT-1. The following applies: light or radiation study, 4 h, 5-ALA loaded 4 hours. From the text:
(§1) ATN-1, C8166, TL-Om1, Hut102, and MT-1 were used as ATL cell lines. Among them, lenalidomide-sensitive cell line was Hut102 and lenalidomide-resistant cell line was C8166. The sensitivity of ATN-1, TL-Om1, and MT-1 to lenalidomide was unknown. Meanwhile, tretinoin-sensitive cell line was C8166 and tretinoin-resistant cell line was Hut102. The sensitivity of ATN-1, TL-Om1, and MT-1 to tretinoin was unknown. In addition, mogamulizumab-sensitive cell lines were ATN-1, TL-Om1, and MT-1, and mogamulizumab-resistant cell line was Hut102. The sensitivity of C8166 to mogamulizumab was unknown. These cells were passaged and cultured. For the experiment, cells were prepared to a density of 1×10^6 cells/ml at the beginning of the experiment.
(§2) To the cell suspension, 5-ALA was added at concentrations of 0, 0.0625, 0.125, 0.25, and 0.5 mM and loaded for 4 hours. The cell after 5-ALA loading was washed and irradiated with light (0, 10, 30, and 100 J/cm^2) at a central wavelength of 630 nm, and cell survival rate (%) was calculated by Cell Counting Kit-8.

Assay [2] has as its system Hut102 ATL cell line. Kind of assay: PDT using 5-ALA, cell survival rate by Cell Counting Kit-8, Hut102. The note with it: for EC50: HuT-102, light or radiation study, 4 h, Hut102, 5-ALA loaded 4 hours.
Description: as §1, §2
(In general: Tetrazolium dyes change colour on reduction, which living cells bring about.)

Assay [3] deals with K562/ADR doxorubicin-resistant CML cell line. The assay can be described thus: PDT using 5-ALA, cell survival rate by Cell Counting Kit-8, K562/ADR. The procedure: (§3) LAMA84-r was used as imatinib-resistant CML cell line and the original cell line LAMA84-s (imatinib-sensitive) was used as a comparative control. In addition, K562/ADR was used as doxorubicin-resistant CML cell line and the original cell line K562 (doxorubicin-sensitive) was used as a comparative control. These cells were passaged and cultured. For the experiment, cells were prepared to a density of 1×10^6 cells/ml at the beginning of the experiment.
as §2

Assay [4] relates to TL-Om1 ATL cell line. The assay can be described thus: PDT using 5-ALA, cell survival rate by Cell Counting Kit-8, TL-Om1. The following applies: light or radiation study, 4 h, 5-ALA loaded 4 hours.
Description: as §1, §2

Assay [5] relates to LAMA84-r imatinib-resistant CML cell line. Kind of assay: PDT using 5-ALA, cell survival rate by Cell Counting Kit-8, LAMA84-r. Here is the method:
as §3, §2

Assay [6] concerns ATN-1 ATL cell line. Kind of assay: PDT using 5-ALA, cell survival rate by Cell Counting Kit-8, ATN-1. The following applies: Homo sapiens, ATN-1, light or radiation study, 4 h, 5-ALA loaded 4 hours.
Description: as §1, §2

The test system of assay [7] is C8166 ATL cell line. The assay can be described thus: PDT using 5-ALA, cell survival rate by Cell Counting Kit-8, C8166. The following applies: for EC50: Homo sapiens, C8166, light or radiation study, 4 h, C8166, 5-ALA loaded 4 hours.
Description: as §1, §2

Usually EC50 stands for the concentration at which the effect is half-maximal. `NCC(=O)CCC(=O)O` [5-ALA, 5-aminolevulinic acid]: the EC50 in assay [1] (10 J/cm^2 at 630 nm) was > 500 µM; in assay [1] (30 J/cm^2 at 630 nm) it was 202 µM; in assay [1] (100 J/cm^2 at 630 nm), 115 µM; in assay [2] (10 J/cm^2 at 630 nm), 441 µM; in assay [2] (30 J/cm^2 at 630 nm), 277 µM; in assay [2] (100 J/cm^2 at 630 nm), 173 µM. Also, the EC50 was determined as 269 µM in assay [4] (10 J/cm^2 at 630 nm); 141 µM in assay [4] (30 J/cm^2 at 630 nm); 92 µM in assay [4] (100 J/cm^2 at 630 nm); 113 µM in assay [6] (10 J/cm^2 at 630 nm); 87 µM in assay [6] (30 J/cm^2 at 630 nm); 84 µM in assay [6] (100 J/cm^2 at 630 nm). The values for the concentration for a half-maximal effect (EC50) in assay [7] (10 J/cm^2 at 630 nm), in assay [7] (30 J/cm^2 at 630 nm) and in assay [7] (100 J/cm^2 at 630 nm) were 113 µM, 87 µM and 77 µM, respectively. Also, the “cell killing by PDT using 5-ALA” value in assay [2] (HuT102, mogamulizumab-resistant and tretinoin-resistant cell line, FIG. 1) is on record as “killed”; in assay [3] (K562/ADR, doxorubicin-resistant cell line, FIG. 2), “killed”; in assay [5] (LAMA84-r, imatinib-resistant cell line, FIG. 2), “killed”; in assay [7] (C8166, lenalidomide-resistant cell line, FIG. 1) it was “killed”. Besides, the “cell killing effect of PDT using 5-ALA relative to sensitive cell lines” value in assay [2] (mogamulizumab-resistant Hut102 versus the other sensitive cell lines (ATN-1, TL-Om1, MT-1)) is on record as “at least comparable”. In addition, the “cell killing effect of PDT using 5-ALA relative to sensitive cell line” value in assay [3] (doxorubicin-resistant K562/ADR versus K562), in assay [5] (imatinib-resistant LAMA84-r versus LAMA84-s), in assay [7] (lenalidomide-resistant C8166 versus lenalidomide-sensitive Hut102) and in assay [7] (tretinoin-resistant cell line C8166 versus tretinoin-sensitive cell line Hut102 (so in the source)) was “comparable” each time.
